Results on two compounds are retold here after patent US5153318A, “3'-Azido nucleoside compound” (Burroughs Wellcome Co., priority 1989, dated 1992).

In assay [1] the test system is human hepatitis B virus. As to the kind of experiment: Anti-HBV activity in human HBV producer cell line of HepG2, 2.2.15. The class given is cell-based. The settings on record: HepG2 2.2.15 cells, ten days; criterion at least 100-fold reduction of Dane particles and similar decrease of intracellular replicative intermediates. On the procedure:
ii) The human HBV producer cell line of HepG2, 2.2.15, described and characterized by Sells et al., PNAS 84:1005, 1987 and J. Virol. […] This cell line was utilized in vitro to identify compounds with anti-HBV activity.
To test compounds for antiviral activity, monolayer cultures were treated with compound. […], for ten days. Supernatant media containing extracellular virion DNA (Dane particles) were harvested on days three, six and ten, treated with proteinase K (1 mg/mL) and sodium dodecyl sulfate (1%), and incubated at 50° C. for one hour. DNA was extracted with equal volumes of phenol followed by chloroform and then precipitated by ammonium acetate and propanol. […] After precipitation by ammonium acetate and propanol, the intracellular DNA precipitate was dissolved, cut by restriction endonuclease, Hind III, applied to agarose gel and then treated as described by Southern to determine the quantity of replicative intermediate forms. The antiviral effect of the drug was determined by measuring at least a 100-fold reduction of the amount of Dane particles extruded into the culture medium and a similar decrease in the intracellular replicative intermediates.

For assay [2], the system named is HIV-1 (strain 3B). As to the kind of experiment: Anti-HIV-1 activity, reversal of cytopathic effect in MT4 cells (propidium iodide dye uptake). Type of assay: cell-based. The note with it: Human immunodeficiency virus 1, MT4, 120 h, 100XTCID50, five days, protection of 50% of the cells from cell killing. (In general: Cytopathic effects are the visible damage that an infection or toxin causes in cultured cells.)
Experimental: i) Anti-HIV activity was determined by measuring the ability of the compound to reverse the cytopathic effect of HIV infection. This was determined by a quantitative assessment of cell growth monitored at the fifth day post infection by a propidium iodide dye uptake test. MT4 cells were incubated with 100XTCID50 of HIV-1 (strain 3B) or HIV-2 (Zagury strain) for one hour prior to addition of compound in six different concentrations varying from 2 to 200 μM. The cells were allowed to incubate for five days at 37° C. On day five, NP-40, a detergent, was added to a final concentration of 0.5% immediately prior to analysis. Cell number was determined using a method which measures the fluorescence of a dye (propidium iodide) which binds to DNA. Since the amount of DNA is directly proportional to cell number, this fluorescence assay is an indication of cell growth. While uninfected cells double in cell number several times during the five days duration of the assay. HIV-infected cells grow very little, if at all.

As a reminder, the IC50 is the concentration at which inhibition is half-maximal.

Each structure is given as a SMILES string.

For the compound `CN(C)c1nc(N)nc2c1ncn2[C@H]1C[C@H](N=[N+]=[N-])[C@@H](CO)O1` [Example 7b, 2-Amino-9-(3-azido-2,3-dideoxy-β-D-erythro-pentofuranosyl)-6-dimethylamino-9H-purine], the “inhibition of human hepatitis B virus” value in assay [1] was “strong inhibition”. With `[N-]=[N+]=N[C@H]1C[C@H](n2cnc3c(OCc4ccccc4)nc(N)nc32)O[C@@H]1CO` [Example 6b, 2-Amino-9-(3-azido-2,3-dideoxy-β-D-erythro-pentofuranosyl)-6-benzyloxy-9H-purine], the half-maximal inhibitory concentration (IC50) in assay [2] was 8.9 µM.
